According to ChEMBL document CHEMBL1147149, “Ecdysteroids from Serratula wolffii roots” (2007):

Tested on: Acyrthosiphon pisum
Test: Toxicity against larvae of orally dosed Acyrthosiphon pisum Harris
Format: functional

Compound	LC50 [ppm]
C/C(=C\CCC(C)(C)O)[C@H]1CC[C@@]2(O)C3=CC(=O)[C@@H]4C[C@@H](O)[C@@H](O)C[C@]4(C)C3CC[C@]12C (stereo partly drawn)	>100
C/C(=C\CCC(C)(C)O)[C@H]1CC[C@@]2(O)C3=CC(=O)[C@@H]4C[C@@H](O)[C@@H](O)[C@@H](O)[C@]4(C)C3CC[C@]12C (stereo partly drawn)	48.5
CC(C)(O)CC[C@@H](O)[C@](C)(O)[C@H]1CC[C@@]2(O)C3=CC(=O)[C@@H]4C[C@@H](O)[C@@H](O)C[C@]4(C)[C@H]3CC[C@]12C [20-HYDROXYECDYSONE]	1.07
